Data published in patent US4447453A, “Anti-peptic ulcer agent” (Chugai Seiyaku Kabushiki Kaisha, priority 1980, dated 1984).

How the values were obtained:
[1] = tested on: rats with stress-induced ulcer; experiment: Restraint and water immersion stress ulcer test in rats (Takagi et al.); format: in vivo, rat (Sprague-Dawley, male); conditions: for inhibition in vivo at 50 mg/kg / inhibition in vivo at 100 mg/kg / inhibition in vivo at 200 mg/kg: Rattus norvegicus
Procedure: Groups of 7-week-old Sprague-Dawley male rats each consisting of 10 members were starved for 24 hours and administered orally the compounds of the present invention. Ten minutes later, they were confined in a restrainer cage according to the method of Takagi et al. (Japanese Journal of Pharmacology, 18, 9-18, 1968), and the cage was placed vertically in a water tank at 23°-24° C. until the rats were immersed in the water to the depth of the processus xiphoideus. Sixteen hours later, the rats were killed with excess ether and had their stomach removed. Each stomach was incised along the greater curvature after the surface of the gastric mucosa and serous membrane was lightly fixed with 1% formalin. The diameter (mm) of the ulcers developed in each rat was summed and the sum was used as the ulcer index for each rat.
The activity of the compounds of the present invention to cure peptic ulcer was measured as in Example 2.

[2] = Acute oral toxicity (LD50) in ddY mice; conditions: mouse, in vivo, male ddY mice, suspension in 2% aqueous gum arabic
Procedure: The compounds listed above have very low toxicity, and the first six compounds have following the LD50 values when they are administered orally to ddY strain male mice (5 weeks old and weighing from 26-30 g) in the form of a suspension in a 2% aqueous gum arabic: […]

[3] = tested on: ulcers developed in Shay rats; experiment: Pylorus ligation (Shay) ulcer test in rats; format: in vivo, rat (Sprague-Dawley, male)
Procedure: Groups of 8-week-old Spraque-Dawley male rats each consisting of 10 members were starved for 48 hours, anaethesized with ether and had their pylorus ligated in accordance with the method of Shay et al. (Gasteroenterology, 5, 43-61, 1945). Immediately thereafter, they were administered the compounds of the present invention intra-duodenally or intraperitoneally. Eighteen hours later, they were killed with excess ether and the gastric mucus membrane was removed and observed under a stereoscopic microscope (×10). The diameter (mm) of the ulcers developed in each rat was summed and the sum was used as the ulcer index of each rat.
The activity of the compounds of the present invention to cure peptic ulcer was measured as in Example 1. The test compound was administered in the duodenum.

[4] = Table 2, oral, 50 mg/kg, 16 h immersion
[5] = Table 2, oral, 100 mg/kg, 16 h immersion
[6] = Table 2, oral, 200 mg/kg, 16 h immersion
[7] = Table 1, intra-duodenal, 50 mg/kg, 18 h
[8] = Table 1, intra-duodenal, 100 mg/kg, 18 h
[9] = Table 1, intra-duodenal, 200 mg/kg, 18 h
[10] = Table 1, intra-peritoneal, 50 mg/kg, 18 h
[11] = Table 4, as in Example 2 (oral), 200 mg/kg
[12] = Table 3, administered in the duodenum, 100 mg/kg

Cc1c(Cl)ccc(C(=O)O)c1Nc1ccccc1C(=O)O [Compound 5]
inhibition in vivo at 50 mg/kg [1, 4]: 38.5%
inhibition in vivo at 100 mg/kg [1, 5]: 88.2%
inhibition in vivo at 200 mg/kg [1, 6]: 100%
ulcer index (means ± S.E.) [1, 4]: 9.6 ± 4.4 mm
ulcer index (means ± S.E.) [1, 5]: 1.8 ± 0.9 mm
ulcer index (means ± S.E.) [1, 6]: 0 mm
LD50 [2]: 1250 mg/kg
inhibition [3, 7]: 67.1%
ulcer index (means ± S.E.) [3, 7]: 1.3 ± 0.6 mm
inhibition [3, 8]: 96.6%
ulcer index (means ± S.E.) [3, 8]: 0.1 ± 0.1 mm
inhibition [3, 9]: 100%
ulcer index (means ± S.E.) [3, 9]: 0 mm
inhibition [3, 10]: 100%
ulcer index (means ± S.E.) [3, 10]: 0 mm

COc1ccc(C(=O)O)c(Nc2cc(Cl)ccc2C(=O)O)c1 [Compound 8]
inhibition in vivo at 200 mg/kg [1, 11]: 96.7%
ulcer index (means ± S.E.) [1, 11]: 1.7 ± 1.3 mm
inhibition [3, 12]: 100.0%
ulcer index (means ± S.E.) [3, 12]: 0 ± 0 mm

Cc1ccc(C(=O)O)c(Nc2ccccc2C(=O)O)c1 [Compound 6]
inhibition in vivo at 50 mg/kg [1, 4]: 34.3%
inhibition in vivo at 100 mg/kg [1, 5]: 92.9%
inhibition in vivo at 200 mg/kg [1, 6]: 100%
ulcer index (means ± S.E.) [1, 4]: 12.1 ± 3.5 mm
ulcer index (means ± S.E.) [1, 5]: 1.5 ± 1.1 mm
ulcer index (means ± S.E.) [1, 6]: 0 mm
LD50 [2]: > 2000 mg/kg
inhibition [3, 7]: 58.6%
ulcer index (means ± S.E.) [3, 7]: 1.4 ± 0.7 mm
inhibition [3, 8]: 92.5%
ulcer index (means ± S.E.) [3, 8]: 0.3 ± 0.3 mm
inhibition [3, 9]: 100%
ulcer index (means ± S.E.) [3, 9]: 0 mm
inhibition [3, 10]: 48.6%
ulcer index (means ± S.E.) [3, 10]: 2.0 ± 0.7 mm

COc1cc(Nc2ccccc2C(=O)O)c(C(=O)O)cc1OC [Compound 7]
inhibition in vivo at 200 mg/kg [1, 11]: 98.4%
ulcer index (means ± S.E.) [1, 11]: 0.2 ± 0.1 mm

Cc1cc(C)c(C(=O)O)c(Nc2cc(Cl)ccc2C(=O)O)c1 [Compound 13]
inhibition in vivo at 200 mg/kg [1, 11]: 70%
ulcer index (means ± S.E.) [1, 11]: 11.6 ± 6.2 mm
inhibition [3, 12]: 50.0%
ulcer index (means ± S.E.) [3, 12]: 1.0 ± 0.7 mm

Cc1ccc(C(=O)O)c(Nc2cc(Cl)ccc2C(=O)O)c1C [Compound 9]
inhibition in vivo at 200 mg/kg [1, 11]: 83.4%
ulcer index (means ± S.E.) [1, 11]: 6.5 ± 3.4 mm
inhibition [3, 12]: 80.1%
ulcer index (means ± S.E.) [3, 12]: 0.7 ± 0.7 mm

Cc1cc(Nc2cc(Cl)ccc2C(=O)O)c(C(=O)O)cc1C [Compound 15]
inhibition in vivo at 200 mg/kg [1, 11]: 78.8%
ulcer index (means ± S.E.) [1, 11]: 8.2 ± 3.2 mm

Cc1cc(Nc2ccccc2C(=O)O)c(C(=O)O)cc1C [Compound 10]
inhibition in vivo at 200 mg/kg [1, 11]: 90.1%
ulcer index (means ± S.E.) [1, 11]: 3.8 ± 1.5 mm
inhibition [3, 12]: 100.0%
ulcer index (means ± S.E.) [3, 12]: 0 ± 0 mm

O=C(O)c1ccc(Cl)cc1Nc1cc(Cl)ccc1C(=O)O [Compound 3]
inhibition in vivo at 50 mg/kg [1, 4]: 23.3%
inhibition in vivo at 100 mg/kg [1, 5]: 49.5%
inhibition in vivo at 200 mg/kg [1, 6]: 92%
ulcer index (means ± S.E.) [1, 4]: 14.3 ± 3.9 mm
ulcer index (means ± S.E.) [1, 5]: 9.4 ± 4.8 mm
ulcer index (means ± S.E.) [1, 6]: 1.5 ± 0.8 mm
LD50 [2]: > 2000 mg/kg
inhibition [3, 7]: 33.7%
ulcer index (means ± S.E.) [3, 7]: 2.3 ± 0.7 mm
inhibition [3, 8]: 78.0%
ulcer index (means ± S.E.) [3, 8]: 0.9 ± 0.6 mm
inhibition [3, 9]: 100%
ulcer index (means ± S.E.) [3, 9]: 0 mm
inhibition [3, 10]: 95.7%
ulcer index (means ± S.E.) [3, 10]: 0.3 ± 0.3 mm

O=C(O)c1ccccc1Nc1cc(Cl)ccc1C(=O)O [Compound 1]
LD50 [2]: 2100 mg/kg

Cc1ccc(Nc2cc(Cl)ccc2C(=O)O)c(C(=O)O)c1 [Compound 2]
inhibition in vivo at 50 mg/kg [1, 4]: 22.5%
inhibition in vivo at 100 mg/kg [1, 5]: 89.2%
inhibition in vivo at 200 mg/kg [1, 6]: 100%
ulcer index (means ± S.E.) [1, 4]: 12.0 ± 6.2 mm
ulcer index (means ± S.E.) [1, 5]: 1.7 ± 1.2 mm
ulcer index (means ± S.E.) [1, 6]: 0 mm
LD50 [2]: > 1500 mg/kg
inhibition [3, 7]: 87.8%
ulcer index (means ± S.E.) [3, 7]: 0.5 ± 0.3 mm
inhibition [3, 8]: 92.7%
ulcer index (means ± S.E.) [3, 8]: 0.3 ± 0.3 mm
inhibition [3, 9]: 100%
ulcer index (means ± S.E.) [3, 9]: 0 mm
inhibition [3, 10]: 80.7%
ulcer index (means ± S.E.) [3, 10]: 0.8 ± 0.4 mm

Cc1ccc(C)c(C(=O)O)c1Nc1cc(Cl)ccc1C(=O)O [Compound 4]
LD50 [2]: 3000 mg/kg

Cc1cc(C)c(C(=O)O)c(Nc2ccccc2C(=O)O)c1 [Compound 11]
inhibition in vivo at 200 mg/kg [1, 11]: 96.9%
ulcer index (means ± S.E.) [1, 11]: 1.2 ± 0.9 mm
inhibition [3, 12]: 60.0%
ulcer index (means ± S.E.) [3, 12]: 1.4 ± 0.6 mm

Cc1ccc(C(=O)O)c(Nc2ccccc2C(=O)O)c1C [Compound 14]
inhibition in vivo at 200 mg/kg [1, 11]: 90.9%
ulcer index (means ± S.E.) [1, 11]: 3.5 ± 1.6 mm
inhibition [3, 12]: 78.5%
ulcer index (means ± S.E.) [3, 12]: 0.4 ± 0.4 mm

Cc1cc(C(=O)O)c(Nc2ccccc2C(=O)O)cc1Cl [Compound 12]
inhibition in vivo at 200 mg/kg [1, 11]: 96.7%
ulcer index (means ± S.E.) [1, 11]: 1.3 ± 0.7 mm
inhibition [3, 12]: 91.8%
ulcer index (means ± S.E.) [3, 12]: 0.3 ± 0.3 mm
